Several values for one entry are separate records, joined by “and”; a condition that tells them apart may be missing. Identical values can stand only once. Inconclusive results and toxic doses are left out. No stated cut-off is given here; in the data, active means T/C of 150% or more; inactive means T/C below 125%.
Tested on: L1210 leukemia ip in BDF1 mice, survival T/C
Test: NCI In Vivo Anticancer Drug Screen. Data for tumor model L1210 Leukemia (intraperitoneal) in B6D2F1 (BDF1) mice
Conditions: endpoint: mean survival time, higher = longer survival
How it was run: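 Tumor cells were implanted, animals were treated, and survival was followed. The result divides the treated measurement by the vehicle-control measurement.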

[1] = dose: 100.0 mg/kg/injection, schedule: Q01DX009 (ip), vehicle: Klucel (hydroxypropylcellulose) (HPC)
[2] = dose: 200.0 mg/kg/injection, schedule: Q01DX009 (ip), vehicle: Klucel (hydroxypropylcellulose) (HPC)
[3] = dose: 400.0 mg/kg/injection, schedule: Q01DX009 (ip), vehicle: Klucel (hydroxypropylcellulose) (HPC)
[4] = dose: 100.0 mg/kg/injection, schedule: Q04DX002 (ip), vehicle: saline with Tween-80
[5] = dose: 100.0 mg/kg/injection, schedule: Q04DX003 (ip), vehicle: Klucel (hydroxypropylcellulose) (HPC)
[6] = dose: 200.0 mg/kg/injection, schedule: Q04DX003 (ip), vehicle: Klucel (hydroxypropylcellulose) (HPC)
[7] = dose: 400.0 mg/kg/injection, schedule: Q04DX003 (ip), vehicle: Klucel (hydroxypropylcellulose) (HPC)
[8] = dose: 75.0 mg/kg/injection, schedule: Q01DX001 (ip), vehicle: carboxymethylcellulose (CMC)

Measured: T/C

C=C(C)CCC1C(=O)N(c2ccccc2)N(c2ccccc2)C1=O
inactive: dose: 25.0 mg/kg/injection, schedule: Q01DX009 (ip), vehicle: Klucel (hydroxypropylcellulose) (HPC) 103 % of control | dose: 50.0 mg/kg/injection, schedule: Q01DX009 (ip), vehicle: Klucel (hydroxypropylcellulose) (HPC) 95 % of control | [1] 100 % of control

Cc1ccc(CNC(=O)Nc2cccc(Cl)c2)cc1C
inactive: [1] 97 % of control | [2] 92 % of control | [3] 103 % of control

CC(=O)Cc1cc(C)nc(/N=C(\N)N2CCOCC2)n1
inactive: dose: 100.0 mg/kg/injection, schedule: Q04DX002 (ip), vehicle: Klucel (hydroxypropylcellulose) (HPC) 100 % of control | dose: 200.0 mg/kg/injection, schedule: Q04DX002 (ip), vehicle: Klucel (hydroxypropylcellulose) (HPC) 92 % of control | dose: 400.0 mg/kg/injection, schedule: Q04DX002 (ip), vehicle: Klucel (hydroxypropylcellulose) (HPC) 88 % of control

COC(=O)c1ccc(O)cc1
inactive: dose: 100.0 mg/kg/injection, schedule: Q04DX002 (ip), vehicle: saline 96 % of control | dose: 200.0 mg/kg/injection, schedule: Q04DX002 (ip), vehicle: saline 100 % of control | dose: 400.0 mg/kg/injection, schedule: Q04DX002 (ip), vehicle: saline 100 % of control

CCCCSP(=S)(SCCCC)c1ccc(Cl)cc1
inactive: [4] 90 % of control | dose: 200.0 mg/kg/injection, schedule: Q04DX002 (ip), vehicle: saline with Tween-80 93 % of control | dose: 400.0 mg/kg/injection, schedule: Q04DX002 (ip), vehicle: saline with Tween-80 97 % of control

CCCCSP(=O)(c1ccccc1)N1CCCCC1 (centres undefined)
inactive: dose: 25.0 mg/kg/injection, schedule: Q04DX002 (ip), vehicle: saline with Tween-80 100 % of control | dose: 50.0 mg/kg/injection, schedule: Q04DX002 (ip), vehicle: saline with Tween-80 92 % of control | [4] 92 % of control and 97 % of control

CC1CC(O)=C(c2ccccc2)P1(=O)Cc1ccccc1 (centres undefined)
inactive: [5] 95 % of control | [6] 95 % of control | [7] 89 % of control

OCC1(CO)COC2(CCCCC2)OC1
inactive: [5] 89 % of control | [6] 91 % of control | [7] 91 % of control

CC1=CC(=O)OC1=O (tested in a mixture with another compound)
inactive: dose: 37.5 mg/kg/injection, schedule: Q01DX009 (ip), vehicle: carboxymethylcellulose (CMC) 117 % of control | [8] 109 % of control | dose: 150.0 mg/kg/injection, schedule: Q01DX001 (ip), vehicle: carboxymethylcellulose (CMC) 118 % of control

Cc1cc(C)c(N(C)C(=O)CCC(=O)O)c(Br)c1
inactive: [1] 89 % of control | [5] 101 % of control | [2] 101 % of control | [6] 100 % of control | [3] 101 % of control | [7] 94 % of control

CC1(c2ccc(C(O)c3ccccc3)s2)OCCO1 (centres undefined)
inactive: dose: 33.0 mg/kg/injection, schedule: Q01DX009 (ip), vehicle: carboxymethylcellulose (CMC) 103 % of control | dose: 37.5 mg/kg/injection, schedule: Q04DX003 (ip), vehicle: Klucel (hydroxypropylcellulose) (HPC) 109 % of control | dose: 50.0 mg/kg/injection, schedule: Q01DX009 (ip), vehicle: carboxymethylcellulose (CMC) 98 % of control | [8] 109 % of control | dose: 75.0 mg/kg/injection, schedule: Q01DX009 (ip), vehicle: carboxymethylcellulose (CMC) 103 % of control | dose: 75.0 mg/kg/injection, schedule: Q04DX003 (ip), vehicle: Klucel (hydroxypropylcellulose) (HPC) 109 % of control | dose: 100.0 mg/kg/injection, schedule: Q01DX001 (ip), vehicle: Klucel (hydroxypropylcellulose) (HPC) 103 % of control | dose: 150.0 mg/kg/injection, schedule: Q01DX001 (ip), vehicle: Klucel (hydroxypropylcellulose) (HPC) 97 % of control | dose: 150.0 mg/kg/injection, schedule: Q01DX009 (ip), vehicle: carboxymethylcellulose (CMC) 113 % of control | dose: 225.0 mg/kg/injection, schedule: Q01DX001 (ip), vehicle: Klucel (hydroxypropylcellulose) (HPC) 109 % of control

CC(=O)OCC1OC(N2C(=O)/C(=C/c3ccc(Cl)cc3)SC2=S)C(OC(C)=O)C(OC(C)=O)C1OC(C)=O (centres undefined)
inactive: dose: 25.0 mg/kg/injection, schedule: Q01DX005 (ip), vehicle: other 97 % of control
